Data from PubChem BioAssay AID1117347 (Cheminformatics & Chemogenomics Research Group (CCRG), …, 2015).
Calls of active or inactive are those of the source. The rule behind the calls is not given here.

Tested on: HeLa cell count decrease
Assay: decrease in HeLa cell numbers, dose-response curve, cell enumeration, 50% inhibitory concentration (AID 1117347)

Compound | IC50
CCN(CCCCOC(=O)c1ccc(OC)c(OC)c1)C(C)Cc1ccc(OC)cc1 (configuration not stated) | > 10000 nM (inactive)
Cc1ccc(S(=O)(=O)NC(=O)NN2CC3CCCC3C2)cc1 (configuration not stated) | > 10000 nM (inactive)
N[C@@H](Cc1ccc(N(CCCl)CCCl)cc1)C(=O)O | 390 nM
COC(=O)c1nc(Cl)c(Cl)nc1N | 408 nM
Cc1nc2ccccc2n1Cc1ccc(Cl)cc1 | 31.8 nM
COc1cccc2c1C(=O)c1c(O)c3c(c(O)c1C2=O)C[C@@](O)(C(C)=O)C[C@@H]3O[C@H]1C[C@H](N)[C@H](O)[C@H](C)O1 | 8.05 nM
O=[N+]([O-])c1ccc(Oc2ccc(N=C=S)cc2)cc1 | > 10000 nM (inactive)
O=c1[nH]c(=O)n([C@H]2C[C@H](O)[C@@H](CO)O2)cc1Br | > 10000 nM (inactive)
COc1ccc2cc1Oc1ccc(cc1)C[C@H]1c3c(cc4c(c3Oc3cc5c(cc3OC)CCN(C)[C@@H]5C2)OCO4)CCN1C | 5540 nM (inactive)
CC(C)=CCNc1ncnc2c1ncn2[C@@H]1O[C@H](CO)[C@@H](O)[C@H]1O | 995 nM
OC[C@H]1O[C@@H](n2cnc3c(=S)nc[nH]c32)[C@H](O)[C@@H]1O | > 10000 nM (inactive)
CCOc1ccc2nc3cc(N)ccc3c(N)c2c1 | 2110 nM
Cc1nc2ccc(CN(C)c3ccc(C(=O)N[C@@H](CCC(=O)O)C(=O)O)s3)cc2c(=O)[nH]1 | > 10000 nM (inactive)
O=C1c2c(O)ccc(O)c2C(=O)c2c(NCCNCCO)ccc(NCCNCCO)c21 | 3.1 nM
Oc1c(Cl)cc(Cl)cc1Sc1cc(Cl)cc(Cl)c1O | > 10000 nM (inactive)
O=C(O)c1ccc(-n2nc(-c3ccccc3O)nc2-c2ccccc2O)cc1 | 5680 nM (inactive)
C[C@@H](O[C@H]1OCCN(Cc2n[nH]c(=O)[nH]2)[C@H]1c1ccc(F)cc1)c1cc(C(F)(F)F)cc(C(F)(F)F)c1 | > 10000 nM (inactive)
COC(=O)Nc1nc2ccc(Sc3ccccc3)cc2[nH]1 | 9.7 nM
O=C(O)CN(CCN(CC(=O)O)CC(=O)O)CCN(CC(=O)O)CC(=O)O | > 10000 nM (inactive)

Compound | IC50
CC[C@@]1(O)C(=O)OCc2c1cc1n(c2=O)Cc2cc3c(CN(C)C)c(O)ccc3nc2-1 | 9 nM
Cc1cc(=O)c2c(O)c3c(O)cc(=O)c4c3c3c(cc(O)c1c23)C(C)(C)C=4O | 1000 nM
CC(=O)N(O)CCCCCNC(=O)CCC(=O)N(O)CCCCCNC(=O)CCC(=O)N(O)CCCCCN | > 10000 nM (inactive)
Nc1nc(=S)c2[nH]cnc2[nH]1 | > 10000 nM (inactive)
CC(=O)Nc1ccn(C2COC(COC(=O)c3ccccc3)O2)c(=O)n1 (configuration not stated) | 281 nM
CCCN(CCC)C(=O)C(CCC(=O)OCCCN1CCN(CCOC(=O)Cc2c(C)n(C(=O)c3ccc(Cl)cc3)c3ccc(OC)cc23)CC1)NC(=O)c1ccccc1 (configuration not stated) | 5480 nM (inactive)
COCc1c(C(C)C)nc(C(C)C)c(/C=C/[C@@H](O)C[C@@H](O)CC(=O)O)c1-c1ccc(F)cc1 | > 10000 nM (inactive)
Cc1c(C)c2c(c(C)c1O)CCC(C)(COc1ccc(CC3SC(=O)NC3=O)cc1)O2 (configuration not stated) | > 10000 nM (inactive)
Cc1cc(N)c2ccccc2[n+]1CCCCCCCCCC[n+]1c(C)cc(N)c2ccccc21 | > 10000 nM (inactive)
O=c1[nH]cc(F)c(=O)[nH]1 | > 10000 nM (inactive)
CC(C)(C)C(=O)OCOP(=O)(COCCn1cnc2c(N)ncnc21)OCOC(=O)C(C)(C)C | 134 nM
COC(=O)Nc1nc2ccc(C(=O)C3CC3)cc2[nH]1 | 297 nM
NCCNc1ccc(NCCN)c2c1C(=O)c1ccncc1C2=O | 42.1 nM
CCCCCCCCCCCCCCCC[N+](C)(C)CCN(Cc1ccc(OC)cc1)c1ncccn1 | 349 nM
O=C1C(=O)c2ccccc2C(O)=C1C1CCC(c2ccc(Cl)cc2)CC1 (configuration not stated) | > 10000 nM (inactive)
CCCCCCCCCCOCC(O)CN (configuration not stated) | > 10000 nM (inactive)
CC[C@@]1(O)C(=O)OCc2c1cc1n(c2=O)Cc2c-1nc1ccccc1c2/C=N/OC(C)(C)C | 2.2 nM
CCCCCCCCCCCCCC[N+](C)(C)C | 3320 nM
